Experimental findings from patent publication US12668845B2, “Methods for predicting drug responsiveness in cancer patients” (Allarity Therapeutics Europe ApS, priority 2018, dated 2026) are described below.

Holding throughout (experiment): Growth inhibition of cell lines treated with 2X-121
Common to all, as to format: cell-based

One experiment has as its system MFE-296. Particulars: Homo sapiens; cell line MFE-296, origin Endometrial; read-out: Measured growth inhibition IC50.
The next experiment has as its system Pfeiffer. Particulars: Homo sapiens; cell line Pfeiffer, origin DLBCL (GC); read-out: Measured growth inhibition IC50.
A further experiment relates to NCI-H146. The settings on record: Homo sapiens; cell line NCI-H146, origin SCLC; read-out: Measured growth inhibition IC50.
A further experiment concerns NCI-H211. The settings on record: Homo sapiens; cell line NCI-H211, origin SCLC; read-out: Measured growth inhibition IC50.
A further experiment deals with HEC-251. Particulars: cell line HEC-251, origin Endometrial; read-out: Measured growth inhibition IC50.
Another experiment concerns DU145. The settings on record: Homo sapiens, DU-145; cell line DU145, origin Prostate; read-out: Measured growth inhibition IC50.
For a further experiment, the system named is Namalwa. The settings on record: cell line Namalwa, origin Burkitts lymphoma; read-out: Measured growth inhibition IC50.
Another experiment deals with M14. Particulars: Homo sapiens; cell line M14, origin Melanoma; read-out: Measured growth inhibition IC50.
The test system of the next experiment is K562. Particulars: Homo sapiens; cell line K562, origin Erythroleukemia from CML Pt; read-out: Measured growth inhibition IC50.
The test system of the next experiment is HEC-6. The settings on record: cell line HEC-6, origin Endometrial; read-out: Measured growth inhibition IC50.
For another experiment, the system named is MCF-7. The settings on record: Homo sapiens, MCF7; cell line MCF-7, origin Breast; read-out: Measured growth inhibition IC50.

As for `O=c1[nH]nc2c3c(cccc13)N=C(CN1Cc3ccccc3C1)N2` [2X-121, 8-(isoindolin-2-ylmethyl)-2,9-dihydro-3H-pyridazino[3,4,5-de]quinazolin-3-one], the half-maximal inhibitory concentration (IC50) with MFE-296 is 670 nM; in the experiment with Pfeiffer it was 710 nM; in the experiment with NCI-H146, 930 nM; with NCI-H211, 480 nM; in the experiment on HEC-251, 1260 nM; with DU145, 1800 nM. The concentration for half-maximal inhibition (IC50) with Namalwa turned out to be 2500 nM; with M14, 6700 nM; in the experiment on K562 it was 4300 nM; with HEC-6 it was 1880 nM; in the experiment with MCF-7, 1900 nM.
